We go through 43 sequences from the supplement of paper PMC11208160.

The series is described as follows: recombinant barcode read abundance after kanamycin selection (control-corrected) (log10(CPM+1)); higher = more efficient recombination; sequences stand for … in AGTGCAGAGAAAATCGGCCAGTTTTCTCTGCCTGCAGTCCGCATGCCGT…ATTTATGCAGCGGACTGCCTTTCTCCCAAAGTGATAAACCGGACAGTATCATGGACCGGTTTTCCCGGTAATCCGTATTTGCAAGGTTGGTTTCACT; site = the 11-nt target. In a few lines: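 The screen was pooled in E. coli and paired targets with IS621 bridge RNA target-binding loops. Recombination efficiency is taken from barcode counts per million at recombinant junctions, averaged and adjusted against the control. Values, in the form log10(CPM+1), come from duplicate plating on chloramphenicol/ampicillin LB agar or on chloramphenicol/ampicillin/kanamycin with 0.1 mM IPTG.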
With “TAGAGGGACTGGGTTCTAACCTGTTGCGGAG [TAGAGGGCTCC_LTGcore_AC_RTGcore_CT] (site TAGAGGGCTCC) (LTG core: AC, RTG core: CT)”, the “recombinant barcode read abundance (log10)” value is 0.265.
The same measure for “TAGAGGGCTTGGGTTCTAACCTGTTGCGGCG [TAGAGGGCTCC_LTGcore_CT_RTGcore_CG] (site TAGAGGGCTCC) (LTG core: CT, RTG core: CG)”: 0.972; for “TAGAGGGCTTGGGTTCTAACCTGTTGCGGGC [TAGAGGGCTCC_LTGcore_CT_RTGcore_GC] (site TAGAGGGCTCC) (LTG core: CT, RTG core: GC)”: 1.36; for “TAGAGGGCTTGGGTTCTAACCTGTTGCGGGG [TAGAGGGCTCC_LTGcore_CT_RTGcore_CC] (site TAGAGGGCTCC) (LTG core: CT, RTG core: CC)”: 0.241.
Consider “TAGAGGGCTTGGGTTCTAACCTGTTGCGGTA [TAGAGGGCTCC_LTGcore_CT_RTGcore_TA] (site TAGAGGGCTCC) (LTG core: CT, RTG core: TA)”, for which the “recombinant barcode read abundance (log10)” value amounted to 0.144.
For “TAGAGGGGATGGGTTCTAACCTGTTGCGGTC [TAGAGGGCTCC_LTGcore_GA_RTGcore_GA] (site TAGAGGGCTCC) (LTG core: GA, RTG core: GA)”, the “recombinant barcode read abundance (log10)” value turned out to be 0.0627.
Consider “TAGAGGGGCTGGGTTCTAACCTGTTGCGGAG [TAGAGGGCTCC_LTGcore_GC_RTGcore_CT] (site TAGAGGGCTCC) (LTG core: GC, RTG core: CT)”, for which the “recombinant barcode read abundance (log10)” value is 0.284.
In the case of “TAGAGGGTCTGGGTTCTAACCTGTTGCGGAG [TAGAGGGCTCC_LTGcore_TC_RTGcore_CT] (site TAGAGGGCTCC) (LTG core: TC, RTG core: CT)”, the “recombinant barcode read abundance (log10)” value came out at 0.506.
In the case of “TAGAGGGTGTGGGTTCTAACCTGTTGCGGCA [TAGAGGGCTCC_LTGcore_TG_RTGcore_TG] (site TAGAGGGCTCC) (LTG core: TG, RTG core: TG)”, the “recombinant barcode read abundance (log10)” value was determined as 0.623.
With “TCGCGACAGTGGGTTCTAACCTGTTGCCGAG [TCGCGACCTCG_LTGcore_AG_RTGcore_CT] (site TCGCGACCTCG) (LTG core: AG, RTG core: CT)”, the “recombinant barcode read abundance (log10)” value is 0.161.
Take “TCGCGACCTTGGGTTCTAACCTGTTGCCGAA [TCGCGACCTCG_LTGcore_CT_RTGcore_TT] (site TCGCGACCTCG) (LTG core: CT, RTG core: TT)”: the “recombinant barcode read abundance (log10)” value was 0.666.
In the case of “TCGCGACCTTGGGTTCTAACCTGTTGCCGAG [TCGCGACCTCG_LTGcore_CT_RTGcore_CT] (site TCGCGACCTCG) (LTG core: CT, RTG core: CT)”, the “recombinant barcode read abundance (log10)” value is 1.15.
“TCGCGACGCTGGGTTCTAACCTGTTGCCGGC [TCGCGACCTCG_LTGcore_GC_RTGcore_GC] (site TCGCGACCTCG) (LTG core: GC, RTG core: GC)”: the “recombinant barcode read abundance (log10)” value was 0.0326.
For “TCGCGACGGTGGGTTCTAACCTGTTGCCGCC [TCGCGACCTCG_LTGcore_GG_RTGcore_GG] (site TCGCGACCTCG) (LTG core: GG, RTG core: GG)” the value was 0.0807; for “TCGCGACTATGGGTTCTAACCTGTTGCCGTA [TCGCGACCTCG_LTGcore_TA_RTGcore_TA] (site TCGCGACCTCG) (LTG core: TA, RTG core: TA)”, 0.139.
The same measure for “TCTACCCCTTGGGTTCTAACCTGTTGCTGCA [TCTACCCCTCA_LTGcore_CT_RTGcore_TG] (site TCTACCCCTCA) (LTG core: CT, RTG core: TG)”: 0.217.
In the case of “TCTACCCCTTGGGTTCTAACCTGTTGCTGGC [TCTACCCCTCA_LTGcore_CT_RTGcore_GC] (site TCTACCCCTCA) (LTG core: CT, RTG core: GC)”, the “recombinant barcode read abundance (log10)” value turned out to be 0.129.
Regarding “TCTACCCGCTGGGTTCTAACCTGTTGCTGAG [TCTACCCCTCA_LTGcore_GC_RTGcore_CT] (site TCTACCCCTCA) (LTG core: GC, RTG core: CT)”, the “recombinant barcode read abundance (log10)” value was found to be 0.045.
As for “TCTACCCGTTGGGTTCTAACCTGTTGCTGAG [TCTACCCCTCA_LTGcore_GT_RTGcore_CT] (site TCTACCCCTCA) (LTG core: GT, RTG core: CT)”, the “recombinant barcode read abundance (log10)” value came out at 0.149.
On to “TCTACCCTATGGGTTCTAACCTGTTGCTGTA [TCTACCCCTCA_LTGcore_TA_RTGcore_TA] (site TCTACCCCTCA) (LTG core: TA, RTG core: TA)”, for which the “recombinant barcode read abundance (log10)” value was 0.0877.
For the sequence “TCTACCCTTTGGGTTCTAACCTGTTGCTGAA [TCTACCCCTCA_LTGcore_TT_RTGcore_TT] (site TCTACCCCTCA) (LTG core: TT, RTG core: TT)”, the “recombinant barcode read abundance (log10)” value came out at 0.0207.
For the sequence “TCTACCCTTTGGGTTCTAACCTGTTGCTGAG [TCTACCCCTCA_LTGcore_TT_RTGcore_CT] (site TCTACCCCTCA) (LTG core: TT, RTG core: CT)”, the “recombinant barcode read abundance (log10)” value is 0.0279.
For “TGATACCAGTGGGTTCTAACCTGTTGCGTAG [TGATACCCTAC_LTGcore_AG_RTGcore_CT] (site TGATACCCTAC) (LTG core: AG, RTG core: CT)” the value was 0.0989; for “TGATACCATTGGGTTCTAACCTGTTGCGTAG [TGATACCCTAC_LTGcore_AT_RTGcore_CT] (site TGATACCCTAC) (LTG core: AT, RTG core: CT)”, 0.0337.
Regarding “TGATACCCGTGGGTTCTAACCTGTTGCGTAG [TGATACCCTAC_LTGcore_CG_RTGcore_CT] (site TGATACCCTAC) (LTG core: CG, RTG core: CT)”, the “recombinant barcode read abundance (log10)” value turned out to be 0.907.
For the sequence “TGATACCCGTGGGTTCTAACCTGTTGCGTCG [TGATACCCTAC_LTGcore_CG_RTGcore_CG] (site TGATACCCTAC) (LTG core: CG, RTG core: CG)”, the “recombinant barcode read abundance (log10)” value came out at 0.0552.
For “TGATACCCTTGGGTTCTAACCTGTTGCGTTG [TGATACCCTAC_LTGcore_CT_RTGcore_CA] (site TGATACCCTAC) (LTG core: CT, RTG core: CA)” the value was 1.25; for “TGATACCGCTGGGTTCTAACCTGTTGCGTGC [TGATACCCTAC_LTGcore_GC_RTGcore_GC] (site TGATACCCTAC) (LTG core: GC, RTG core: GC)”, 0.107; for “TGATACCGGTGGGTTCTAACCTGTTGCGTCC [TGATACCCTAC_LTGcore_GG_RTGcore_GG] (site TGATACCCTAC) (LTG core: GG, RTG core: GG)”, 0.115.
The same measure for “TGATACCTGTGGGTTCTAACCTGTTGCGTAG [TGATACCCTAC_LTGcore_TG_RTGcore_CT] (site TGATACCCTAC) (LTG core: TG, RTG core: CT)”: 0.064.
Turning to “TGTATTCCCTGGGTTCTAACCTGTTGCCTGG [TGTATTCCTAG_LTGcore_CC_RTGcore_CC] (site TGTATTCCTAG) (LTG core: CC, RTG core: CC)”, the “recombinant barcode read abundance (log10)” value is 0.267.
For “TGTATTCCTTGGGTTCTAACCTGTTGCCTAT [TGTATTCCTAG_LTGcore_CT_RTGcore_AT] (site TGTATTCCTAG) (LTG core: CT, RTG core: AT)”, the “recombinant barcode read abundance (log10)” value came to 0.192.
For “TGTATTCCTTGGGTTCTAACCTGTTGCCTCC [TGTATTCCTAG_LTGcore_CT_RTGcore_GG] (site TGTATTCCTAG) (LTG core: CT, RTG core: GG)”, the “recombinant barcode read abundance (log10)” value turned out to be 0.364.
Consider “TGTATTCCTTGGGTTCTAACCTGTTGCCTGT [TGTATTCCTAG_LTGcore_CT_RTGcore_AC] (site TGTATTCCTAG) (LTG core: CT, RTG core: AC)”, for which the “recombinant barcode read abundance (log10)” value stood at 0.0232.
For “TGTATTCGATGGGTTCTAACCTGTTGCCTTC [TGTATTCCTAG_LTGcore_GA_RTGcore_GA] (site TGTATTCCTAG) (LTG core: GA, RTG core: GA)”, the “recombinant barcode read abundance (log10)” value is 0.138.
Consider “TGTATTCGGTGGGTTCTAACCTGTTGCCTCC [TGTATTCCTAG_LTGcore_GG_RTGcore_GG] (site TGTATTCCTAG) (LTG core: GG, RTG core: GG)”, for which the “recombinant barcode read abundance (log10)” value stood at 0.0849.
For “TGTATTCGTTGGGTTCTAACCTGTTGCCTAC [TGTATTCCTAG_LTGcore_GT_RTGcore_GT] (site TGTATTCCTAG) (LTG core: GT, RTG core: GT)”, the “recombinant barcode read abundance (log10)” value was found to be 0.00818.
In the case of “TGTATTCTATGGGTTCTAACCTGTTGCCTTA [TGTATTCCTAG_LTGcore_TA_RTGcore_TA] (site TGTATTCCTAG) (LTG core: TA, RTG core: TA)”, the “recombinant barcode read abundance (log10)” value is 0.0243.
As for “TGTATTCTTTGGGTTCTAACCTGTTGCCTAG [TGTATTCCTAG_LTGcore_TT_RTGcore_CT] (site TGTATTCCTAG) (LTG core: TT, RTG core: CT)”, the “recombinant barcode read abundance (log10)” value was 0.242.
For “TTATAAACTTGGGTTCTAACCTGTTGCCTAG [TTATAAACTAG_LTGcore_CT_RTGcore_CT] (site TTATAAACTAG) (LTG core: CT, RTG core: CT)”, the “recombinant barcode read abundance (log10)” value amounted to 0.894.
Consider “TTATAAACTTGGGTTCTAACCTGTTGCCTCG [TTATAAACTAG_LTGcore_CT_RTGcore_CG] (site TTATAAACTAG) (LTG core: CT, RTG core: CG)”, for which the “recombinant barcode read abundance (log10)” value was determined as 0.154.
On to “TTATAAACTTGGGTTCTAACCTGTTGCCTGC [TTATAAACTAG_LTGcore_CT_RTGcore_GC] (site TTATAAACTAG) (LTG core: CT, RTG core: GC)”, for which the “recombinant barcode read abundance (log10)” value turned out to be 0.178.
Regarding “TTATAAACTTGGGTTCTAACCTGTTGCCTTG [TTATAAACTAG_LTGcore_CT_RTGcore_CA] (site TTATAAACTAG) (LTG core: CT, RTG core: CA)”, the “recombinant barcode read abundance (log10)” value is 0.173.
